In US20090318534A1, “METHODS AND COMPOSITIONS FOR THE TREATMENT OF SKIN DISEASES AND DISORDERS” (THE REGENTS OF THE UNIVERSITY OF CALIFORNIA, priority 2006, published 2009):
“Also recorded” adds a separate entry of the source.

Experiments:
mouse skin [1] = experiment: Subcutaneous injection of SCTE in mice, skin inflammation and cathelicidin processing; type: in vivo
Experimental: Skin from Spink5^−/− mice had altered expression of cathelicidin peptides similar to that seen in rosacea (FIG. 4i). The main peak was GLL-34 (m/z 3,877; FIG. 4i, arrowhead), a mouse cathelicidin peptide similar in activity to human LL-37. Like LL-37, GLL-34 was not detected in wild-type mouse littermates with normal serine protease activity. […] To determine whether an increase in SCTE results in greater inflammation, SCTE was injected subcutaneously in a manner similar to that used for the cathelicidin peptides themselves. The amount of SCTE in human skin is as high as 2-13 ng per mg of dry weight of skin. From the data of the protease assay, the amount of serine protease activity in lesional skin of individuals with rosacea was estimated to be as high as 500 ng of tryptic kallikrein per mg of dry weight of skin. Therefore, […] of SCTE was injected twice a day for 2 d to mimic local concentrations seen in rosacea. […] Therefore, the increase in SCTE observed in rosacea would account for the pathological changes observed this disease.

[2] = test system: Normal human keratinocytes; experiment: Measurement of IL-8 release; type: cell-based; conditions: peptides 3.2 μM, 6 h, ELISA; FIG. 4a
Experimental: Measurement of IL-8 release. Normal human keratinocytes (Cascade Biologics) were grown in EpiLife medium (Cascade Biologics) supplemented with 0.06 mM Ca2, 1% EpiLife defined growth supplement, and 1% penicillin/streptomycin (Invitrogen Life Technologies). Cells were grown at 37° C. in a humidified atmosphere of 5% CO2 and 95% air. Human keratinocytes were cultured to confluence and treated with the cathelicidin peptides (3.2 μM) for 6 h. Supernatants were collected and placed in a sterile 96-well plate for ELISA. IL-8 production was determined by ELISA (R&D systems) according to the manufacturer's instructions.

mouse skin [3] = experiment: Mouse skin inflammation model, subcutaneous injection of cathelicidin peptides; type: in vivo, Balb/C and C57/B16 mice; conditions: for skin inflammation (erythema, vascular dilatation) / histology of injected skin: 320 μM in 40 μl; for skin inflammation (erythema, vascular dilatation): injected twice a day for 2 d, assessed after 48 hr; for histology of injected skin: biopsy after 48 hr
Experimental: Mouse skin inflammation models. All animal procedures were approved by the Veterans Affairs (VA) San Diego Healthcare System subcommittee on animal studies. Balb/C and C57/B16 mice shaved 24 h prior to treatments and injected subcutaneously on the back with 40 μl of peptide (320 μM) twice a day. Forty-eight h after initial injection (total 4 injections), skin inflammation was assessed by the severity of erythema and edema, then biopsied for histology.
Mouse skin inflammation models. Balb/C or […] mice shaved 24 h prior to treatments were injected subcutaneously on the back with 40 μl of peptide at different concentrations (320, 32, 3.2, 0.32 μM, and PBS as 0 μM) twice a day. Forty-eight h after initial injection (total 4 injection), skin inflammation was assessed by the severity of erythema and edema. Skin was then biopsied for hematoxlin eosin staining to examine the histopathological changes. Frozen sections were also prepared and processed for immunostaining that included rat monoclonal anti-mouse Ly-6G (BD Biosciences, San Jose, Calif.) or rat monoclonal anti-mouse CD31 (BD Biosciences). Goat anti-rat IgG conjugated to FITC (Abcam Inc., Cambridge, Mass.) was used as the secondary antibody. Nuclei were stained with DAPI and sections were mounted in ProLong Anti-Fade reagent (Molecular Probes). Images were obtained using an Olympus BX41 microscope (Scientific Instrument Company, Temecula, Calif.).

[4] = biological target: T1, kallikrein stratum corneum tryptic enzyme (SCTE) (Homo sapiens, UniProt Q9Y337); experiment: Inhibition of SCTE in vitro; type: biochemical
T1 sequence (Q9Y337 23-293): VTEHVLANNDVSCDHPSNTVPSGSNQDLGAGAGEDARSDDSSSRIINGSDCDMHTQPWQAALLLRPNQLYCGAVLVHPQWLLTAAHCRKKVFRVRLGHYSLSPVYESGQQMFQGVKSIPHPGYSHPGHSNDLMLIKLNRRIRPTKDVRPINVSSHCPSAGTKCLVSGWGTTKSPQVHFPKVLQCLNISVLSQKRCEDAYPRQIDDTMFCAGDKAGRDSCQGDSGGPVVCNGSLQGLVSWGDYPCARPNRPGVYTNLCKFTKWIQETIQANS
Source text: In one aspect of the disclosure, a method of treatment of inflammatory diseases and disorders, rosacea and or acnes comprises inhibiting cathelicidin expression or activity. Examples of compositions and methods for inhibiting the expression of cathelicidins include antisense, ribozyme and gene therapy techniques. For example, rosacea can be inhibited or treated using antisense or ribozyme therapies that reduce the expression of cathelicidin. In one aspect, a vitamin D inhibitor, or vitamin D receptor antagonist can be used to reduce expression of a cathelicidin. Examples of compositions and methods for inhibiting cathelicidin activity include antibodies and small molecule agents. In one aspect, the treatment is at the site of inflammation through topical inhibition of Vitamin D activity, inhibiting of a Vitamin D receptor activity, or an inhibitor of a protease that cleaves full length cathelicidin into its active fragments is provided. For example, a method of the disclosure comprises inhibiting the kallikrein stratum corneum tryptic enzyme (SCTE), an enzyme that cleaves the cathelicidin precursor protein.

[5] = test system: protease activity in rosacea skin; experiment: Skin protease activity (BODIPY FL casein substrate) of rosacea skin extracts with protease inhibitors; type: biochemical, human; conditions: tape-stripped rosacea facial skin extracts, FITC/BODIPY FL casein, 37° C. 24 h; 20 μg/ml aprotinin, 200 μM AEBSF; FIG. 3k
Experimental: Skin protease activity. To obtain skin surface protease, facial skin was tape-stripped 20 times then immersed in 1 ml 1 M acetic acid and incubated 4° C. overnight, extracts were lyophilized and the pellet dissolved in 40 μl of 1×PBS, pH 7.4. Protease activity was monitored with EnzCheck® Protease Assay Kit green fluorescence (Molecular Probes, Inc., Eugene, Oreg.) according to manufacturer's instructions. Briefly, 10 μl of the aqueous solution collected from the skin surface was mixed with 190 μl of BODIPY FL casein substrate in 10 mM Tris-HCl, pH 7.8, and incubated at 37° C. for 24 h. Protease activity was monitored as increased fluorescence with SpectraMax GEMINI EM (Molecular Devices Corporation, Sunnyvale, Calif.). In some experiments protease inhibitors were added including mixed protease inhibitors (Complete EDTA-free, 1 tablet/50 ml; Roche, Indianapolis, Ind.), 200 μg/ml bestatin, 20 μg/ml E-64, and 20 μg/ml aprotinin (Sigma-Aldrich, St. Louis, Mo.), 200 μM 4-(2-aminoethyl)-benzenesulfonylfluoride (AEBSF), 200 μM human neutrophil elastase inhibitor (methoxysuccinyl-Ala-Ala-Pro-Ala-chloromethyl ketone), 200 μM human leukocyte elastase inhibitor (methoxysuccinyl-Ala-Ala-Pro-Val-chloromethylketone, Calbiochem, San Diego, Calif.).

mouse cathelicidin = biological target: T2, mouse cathelicidin (UniProt P51437)
T2 sequence: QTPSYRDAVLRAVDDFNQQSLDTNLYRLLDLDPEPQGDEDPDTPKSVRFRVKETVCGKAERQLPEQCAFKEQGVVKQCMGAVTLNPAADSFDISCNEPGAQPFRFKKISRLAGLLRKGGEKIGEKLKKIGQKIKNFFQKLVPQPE

SCTE: kallikrein SCTE (stratum corneum tryptic enzyme, KLK5), serine protease that cleaves cathelicidin precursor
cell infiltration after SCTE injection in Camp−/− mice compared with wild type mice (mouse skin [1]; Camp−/− versus wild type, infiltrated cells per HPF, n=4, P<0.05): considerably less cell infiltration; also recorded: significantly less cell infiltration
skin inflammation and cathelicidin processing after SCTE injection (mouse skin [1]; active SCTE injected subcutaneously twice a day for 2 d, versus control (boiled SCTE)): induced erythema and inflammatory cell infiltration accompanied by processing of cathelicidin peptide; also recorded: showed inflammation and processed cathelicidin peptide

LL-37: synthetic cathelicidin peptide LLGDFFRKSKEKIGKEFKRIVQRIKDFLRNLVPRTES (SEQ ID NO:14) (Partial Peptide Sequence from TOF-MS)
secretion of IL-8 from cultured human keratinocytes [2]: induced secretion of IL-8
skin inflammation (erythema, vascular dilatation) (mouse skin [3]): induced erythema and vascular dilatation
histology of injected skin (mouse skin [3]; twice a day for 2 d): neutrophilic infiltrate, thrombosis and hemorrhage
lowest concentration with dose-dependent inflammatory reaction (mouse skin [3]; 320-0.32 μM, 40 μl, twice a day for 2 d, FIG. 7d, Balb/C and C57/B16): 3.2 µM

KR-20: synthetic cathelicidin peptide KRIVQRIKDFLRNLVPRTES (SEQ ID NO:15)
secretion of IL-8 from cultured human keratinocytes [2]: did not induce cytokine release
skin inflammation (erythema, vascular dilatation) (mouse skin [3]): did not induce inflammation

NCCc1ccc(S(=O)(=O)F)cc1 [AEBSF, 4-(2-aminoethyl)-benzenesulfonylfluoride]
inhibition of SCTE in vitro [4]: can inhibit this enzyme in vitro
protease activity in rosacea skin [5]: completely suppressed protease activity; also recorded: effective in eliminating activity

aprotinin
inhibition of SCTE in vitro [4]: can inhibit this enzyme in vitro
protease activity in rosacea skin [5]: completely suppressed protease activity; also recorded: effective in eliminating activity

stratum corneum tryptic enzyme (SCTE)
cathelicidin processing in mouse skin after subcutaneous SCTE injection (SELDI-TOF-MS) (mouse cathelicidin): SCTE-treated skin showed inflammation and processed cathelicidin peptide (m/z 4,244, sequence FKKISRLAGLLRKGGEKIGEKLKKIGQKIKNFFQKLV (SEQ ID NO:3))

FA-29: synthetic cathelicidin peptide FALLGDFFRKSKEKIGKEFKRIVQRIKDF (SEQ ID NO:10) (Partial Peptide Sequence from TOF-MS)
secretion of IL-8 from cultured human keratinocytes [2]: induced secretion of IL-8
skin inflammation (erythema, vascular dilatation) (mouse skin [3]): induced erythema and vascular dilatation
histology of injected skin (mouse skin [3]; twice a day for 2 d): neutrophilic infiltrate, thrombosis and hemorrhage

DI-27: synthetic cathelicidin peptide DISCDKDNKRFALLGDFFRKSKEKIGK (SEQ ID NO:7) (Partial Peptide Sequence from TOF-MS)
secretion of IL-8 from cultured human keratinocytes [2]: did not
